Experimental findings from publication PMC10683472, “Deep Learning-Driven Library Design for the De Novo Discovery of Bioactive Thiopeptides” (ACS Central Science, 2023) are described below.

One series is described as follows: Serum stability assay. In kind it is in vitro ADME. The conditions noted are these: human serum, 37 °C, LC/MS; for half-life at 10 µM: pH 7.6, read-out: serum stability τ1/2 (converted). As to the method:
Next, we tested the metabolic stability of the discovered thiopeptides. The compounds were incubated in human serum at 37 °C in the presence of an internal control, and the amounts of the remaining analytes were quantified by LC/MS (Figures S27 and 28). […] At the other extreme, IR11 rapidly degraded in human serum with τ1/2 = 0.5 h. […]
Kinetic parameters and affinities of the […]
2.12. Thiopeptide metabolic stability experiments
The mixtures were stirred
well and transferred to a 37 °C thermostat. […]

Series [1] has as its target T1, Human TLR10 Fc Chimera protein (extracellular domain) (Homo sapiens, UniProt Q9BXR5).
T1 construct: Chimera protein (extracellular domain, amino acid 20-576;); Fc (chimera); purchased R&D system #6619-TR-050
T1 sequence (Q9BXR5 20-576): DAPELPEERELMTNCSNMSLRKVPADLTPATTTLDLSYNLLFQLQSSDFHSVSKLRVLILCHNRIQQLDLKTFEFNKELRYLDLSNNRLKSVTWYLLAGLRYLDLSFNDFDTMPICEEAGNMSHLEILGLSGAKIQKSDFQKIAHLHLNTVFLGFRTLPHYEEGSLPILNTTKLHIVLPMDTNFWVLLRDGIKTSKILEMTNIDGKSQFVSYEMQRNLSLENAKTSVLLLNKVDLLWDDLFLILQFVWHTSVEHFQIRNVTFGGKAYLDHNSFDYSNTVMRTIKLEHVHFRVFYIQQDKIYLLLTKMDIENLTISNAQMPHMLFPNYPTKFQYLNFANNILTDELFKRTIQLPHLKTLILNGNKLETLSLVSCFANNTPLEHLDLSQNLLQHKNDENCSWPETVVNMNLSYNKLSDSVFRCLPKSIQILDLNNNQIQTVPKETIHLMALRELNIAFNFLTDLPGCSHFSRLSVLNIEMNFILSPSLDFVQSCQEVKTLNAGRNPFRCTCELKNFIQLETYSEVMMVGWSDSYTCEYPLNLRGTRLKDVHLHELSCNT
Description: Surface plasmon resonance binding to TLR10. Conditions: SPR. The method, then: Reagents were purchased from Nacalai Tesque, Wako Pure Chemical Industries, Sigma-Aldrich Japan, or TCI Chemicals and were used as received. […]
Anti-HA magnetic beads were from Pierce Thermo […]
2000c spectrophotometer (Thermo Scientific) equipped with a 5 mm pathlength quartz cuvette using extinction coefficient values calculated with ExPASy ProtParam tool (https://web.expasy.org/protparam). […]
Biochemical measurements (sections 2.10 – 2.14) were performed in triplicate or more. Most […]
determination of biophysical parameters involved cell assay (CP50 and IC50), reported are standard errors of the fit; otherwise, error bars are standard deviations. […]

Series [2] deals with T2, TLR10 (Homo sapiens, UniProt Q9BXR5).
T2 sequence (Q9BXR5 20-576): T1 sequence (Q9BXR5 20-576)
Description: Single-round mRNA display binding assay (qPCR), TLR10. Conditions: ratio of cDNA recoveries (qPCR), TLR10 pulldown over beads only, single-round selection. In general terms: In qPCR the cycle at which signal appears reflects the starting amount.

In series [3] the target is T2, TLR10. Description: mRNA display affinity selection against TLR10, NGS abundance. Conditions: TLR10 selection, NGS abundance rank. In kind it is binding. Also on record: Chimera protein (extracellular domain, amino acid 20-576;); Fc (chimera); purchased R&D system #6619-TR-050.

Where a SMILES comes first, the peptide text is derived from it.

For `C=C1NC(=O)[C@H](CCCC(N)=O)NC(=O)[C@H](Cc2ccc(O)cc2)NC(=O)[C@H](CC(C)C)NC(=O)[C@H](CCCC)NC(=O)[C@H](CC(N)=O)NC(=O)[C@H]([C@@H](C)O)NC(=O)[C@H](CCC(N)=O)NC(=O)[C@H](CCCCN)NC(=O)[C@H]([C@@H](C)CC)NC(=O)[C@H](CC(C)C)NC(=O)[C@H](CC(C)C)NC(=O)[C@H](C)NC(=O)[C@H](Cc2c[nH]c3ccccc23)NC(=O)c2ccc(-c3nc(C(=O)OC)cs3)nc2-c2csc1n2` [TL17] (HELM PEPTIDE1{W.A.L.L.I.K.Q.T.N.[Nle].L.Y.[O=C([C@H](CCCC(=O)[*:3])N[*:1])[*:2]]}|PEPTIDE2{[am]}|CHEM1{[C=C(N[*:2])c1nc(-c2nc(-c3nc(C(=O)OC)cs3)ccc2C(=O)[*:1])cs1]}$PEPTIDE1,PEPTIDE2,13:R3-1:R1|PEPTIDE1,CHEM1,1:R1-1:R1|PEPTIDE1,CHEM1,13:R2-1:R2$$$V2.0; bridges inferred), the half-life at 10 µM in the series “Serum stability assay” was 6 ± 0.1 h. In series [1], this compound came in with an off-rate constant (koff) of 0.0067 s⁻¹ and a kon of 18900 M⁻¹ s⁻¹. Besides, the “display P/N ratio” value at TLR10 [2] is 737. The “rank in pulldown(–)” value at TLR10 [3] came to 9. The “rank in pulldown(+)” value at TLR10 [3] (–: not found in the final pulldown(+) libraries at the sequenced depth) is listed as 10.

For `C=C1NC(=O)[C@H]([C@@H](C)CC)NC(=O)[C@H](C)NC(=O)[C@H](CC(C)C)NC(=O)[C@H](CCCCN)NC(=O)[C@H](CO)NC(=O)[C@H](CCC(N)=O)NC(=O)[C@H](CC(C)C)NC(=O)[C@H](CCCNC(=N)N)NC(=O)[C@H](Cc2ccccc2)NC(=O)[C@H](CC(C)C)NC(=O)[C@H](CCCC)NC(=O)[C@H]([C@@H](C)O)NC(=O)[C@H](Cc2c[nH]c3ccccc23)NC(=O)c2ccc(-c3nc(C(=O)OC)cs3)nc2-c2csc1n2` [TL6] (HELM PEPTIDE1{W.T.[Nle].L.F.R.L.Q.S.K.L.A.I}|CHEM1{[C=C(N[*:2])c1nc(-c2nc(-c3nc(C(=O)OC)cs3)ccc2C(=O)[*:1])cs1]}$PEPTIDE1,CHEM1,1:R1-1:R1|PEPTIDE1,CHEM1,13:R2-1:R2$$$V2.0), the half-life at 10 µM in the series “Serum stability assay” is 8.2 ± 1.2 h. Also, in series [1], the koff turned out to be 0.0048 s⁻¹ and the kon came out at 7650 M⁻¹ s⁻¹. Further, the “display P/N ratio” value on TLR10 [2] was found to be 268. In addition, the “rank in pulldown(–)” value at TLR10 [3] is given as 12.

As to `C=C1NC(=O)[C@H](Cc2c[nH]cn2)NC(=O)[C@H]([C@@H](C)CC)NC(=O)[C@H](C(C)C)NC(=O)[C@H](C(C)C)NC(=O)[C@H](CC(N)=O)NC(=O)[C@H](C(C)C)NC(=O)[C@H](CCCNC(=N)N)NC(=O)[C@H](CO)NC(=O)[C@H](CC(C)C)NC(=O)[C@H](CCC(=O)O)NC(=O)[C@H](CC(C)C)NC(=O)[C@H](CO)NC(=O)[C@H](Cc2c[nH]c3ccccc23)NC(=O)c2ccc(-c3nc(C(=O)OC)cs3)nc2-c2csc1n2` [TL20] (HELM PEPTIDE1{W.S.L.E.L.S.R.V.N.V.V.I.H}|CHEM1{[C=C(N[*:2])c1nc(-c2nc(-c3nc(C(=O)OC)cs3)ccc2C(=O)[*:1])cs1]}$PEPTIDE1,CHEM1,1:R1-1:R1|PEPTIDE1,CHEM1,13:R2-1:R2$$$V2.0; bridges inferred), in “Serum stability assay”, the “serum stability τ1/2” value amounted to 38 h and the half-life at 10 µM was 38.2 ± 6 h. In addition, in series [1], the koff came out at 0.0078 s⁻¹ and the kon is 25500 M⁻¹ s⁻¹. Besides, the “display P/N ratio” value at TLR10 [2] was determined as 286. Further, on TLR10 [3], the “rank in pulldown(–)” value is reported as 52.

For orientation: koff means the rate constant with which the complex falls apart. The low end stands for a long-lived complex, the high end for a short-lived complex. As a reminder, the kon is the rate constant with which the complex forms. Low readings indicate slower complex formation, high ones faster complex formation.
